Reference: patent US20250154146A1, “PROTEIN DEGRADERS DEVELOPED ON BASIS OF BCL-2 FAMILY PROTEIN LIGAND COMPOUNDS AND USE THEREOF” (ShanghaiTech University, priority 2022, published 2025)

Test system: Molt-4 cells
Assay: Thiazolyl blue cell proliferation assay in Molt-4 cells
Type: cell-based
Conditions: Homo sapiens, Molt-4 acute lymphocytic leukemia cells, 72 hours, read-out: IC50 (nM) for inhibiting the proliferation of Molt-4 cells
Description: The cell lines RS4;11 (human acute lymphocytic leukemia cells), Molt-4 cells (human acute lymphocytic leukemia cells), MV4;11 (human myeloid monocytic leukemia cells), and Light II cells were commercially available or purchased from ATCC (American Type Culture Collection) and routinely cultured according to instructions.
3) Study on the proliferation inhibition effects induced by the compounds of the present disclosure designed based on ABT199/263 against BCL-XL-dependent Molt-4 cells:
The specific steps were as follows: Molt-4 cells were seeded at a density of 2×10^4 cells/well in 180 μL of serum-containing RPMI 1640 culture medium. DT2216 and the compounds of the present disclosure were added to the cell suspension at corresponding concentration gradients. DT2216 and DMSO were used as positive and vehicle control, respectively. The positive control and negative control were treated with the same treatment method as the compounds of the present disclosure. After treating the cells with the compounds of the present disclosure for 72 hours, thiazole blue solution (5 mg/mL) was added at 20 μL/well to the cell suspension, followed by incubation for 3 hours at 37° C. in an incubator with 5% CO2. Then, triple solution (0.1 g/mL SDS, 5% isopropyl alcohol, 10 mM hydrochloric acid) was added, followed by incubation for 4-6 hours at 37° C. in an incubator with 5% CO2. After confirming that all the crystal violets were dissolved under inverted biological microscopy, the absorbance was measured at 490 nm using an Epoch microplate reader (Biotek Corporation). The growth inhibition of the compounds of the present disclosure on the cells was plotted by GraphPad Prism 8 software, and the IC50 values of the compounds of the present disclosure were calculated therefrom. The experiment had 3 replicates per group and was repeated at least three times.

| Structure (SMILES) | IC50 [nM] |
| --- | --- |
| CC1(C)CCC(c2ccc(Cl)cc2)=C(CN2CCN(c3ccc(C(=O)NS(=O)(=O)c4ccc(N[C@H](CCN5CCN(Cc6cc(Br)c7c(c6)C(=O)N(C6CCC(=O)NC6=O)C7)CC5)CSc5ccccc5)c(S(=O)(=O)C(F)(F)F)c4)cc3)CC2)C1 (stereo partly drawn) [BCL-03178, N-((4-(((2R)-4-(4-((7-bromo-2-(2,6-dioxopiperidin-3-yl)-3-oxoisoindolin-5-yl)methyl)piperazin-1-yl)-1-(phenylthio)butan-2-yl)amino)-3-((trifluoromethyl)sulfonyl)phenyl)sulfonyl)-4-(4-((4′-chloro-4,4-dimethyl-3,4,5,6-tetrahydro-[1,1′-biphenyl]-2-yl)methyl)piperazin-1-yl)benzamide] | < 10 |
| C[C@H]1CN([C@H]2CC[C@H](CNc3ccc(S(=O)(=O)NC(=O)c4ccc(N5CCN(CC6=C(c7ccc(Cl)cc7)CC(C)(C)CC6)CC5)cc4Oc4cnc5[nH]ccc5c4)cc3[N+](=O)[O-])CC2)CCN1Cc1cc(Br)c2c(c1)C(=O)N(C1CCC(=O)NC1=O)C2 (stereo partly drawn) [BCL-03170, 2-((1H-pyrrolo[2,3-b]pyridin-5-yl)oxy)-N-((4-((((trans)-4-((3S)-4-((7-bromo-2-(2,6-dioxopiperidin-3-yl)-3-oxoisoindolin-5-yl)methyl)-3-methylpiperazin-1-yl)cyclohexyl)methyl)amino)-3-nitrophenyl)sulfonyl)-4-(4-((4′-chloro-5,5-dimethyl-3,4,5,6-tetrahydro-[1,1′-biphenyl]-2-yl)methyl)piperazin-1-yl)benzamide] | < 10 |
| C[C@@H]1CN([C@H]2CC[C@@H](CNc3ccc(S(=O)(=O)NC(=O)c4ccc(N5CCN(CC6=C(c7ccc(Cl)cc7)CC(C)(C)CC6)CC5)cc4Oc4cnc5[nH]ccc5c4)cc3[N+](=O)[O-])CC2)CCN1Cc1cc(Br)c2c(c1)C(=O)N(C1CCC(=O)NC1=O)C2 (stereo partly drawn) [BCL-03171, 2-((1H-pyrrolo[2,3-b]pyridin-5-yl)oxy)-N-((4-((((cis)-4-((3R)-4-((7-bromo-2-(2,6-dioxopiperidin-3-yl)-3-oxoisoindolin-5-yl)methyl)-3-methylpiperazin-1-yl)cyclohexyl)methyl)amino)-3-nitrophenyl)sulfonyl)-4-(4-((4′-chloro-5,5-dimethyl-3,4,5,6-tetrahydro-[1,1′-biphenyl]-2-yl)methyl)piperazin-1-yl)benzamide] | < 10 |
| C[C@@H]1CN([C@H]2CC[C@H](CNc3ccc(S(=O)(=O)NC(=O)c4ccc(N5CCN(CC6=C(c7ccc(Cl)cc7)CC(C)(C)CC6)CC5)cc4Oc4cnc5[nH]ccc5c4)cc3[N+](=O)[O-])CC2)CCN1Cc1cc(Br)c2c(c1)C(=O)N(C1CCC(=O)NC1=O)C2 (stereo partly drawn) [BCL-03172, 2-((1H-pyrrolo[2,3-b]pyridin-5-yl)oxy)-N-((4-((((trans)-4-((3R)-4-((7-bromo-2-(2,6-dioxopiperidin-3-yl)-3-oxoisoindolin-5-yl)methyl)-3-methylpiperazin-1-yl)cyclohexyl)methyl)amino)-3-nitrophenyl)sulfonyl)-4-(4-((4′-chloro-5,5-dimethyl-3,4,5,6-tetrahydro-[1,1′-biphenyl]-2-yl)methyl)piperazin-1-yl)benzamide] | < 10 |
